Holding throughout (format): cell-based
The test system of assay [1] is L929 cell line (mouse fibroblast cell line). The assay can be described thus: XTT assay, cell proliferation study. The note with it: L929, XTT; for IC50: 24 h incubation, 0.01–1250 µmol/L; for The Range of Influence [%, Control = 100%]: viability over 0.01–1250 µmol/L. As for the experimental part: (§1) Four independent experiments (n = 4 for each used concentration) were performed. […] This indicates good or very good (in the case of 1, 3, 5, 8, 11) selectivity of action. […] Due to the dual action of these compounds, it would be advisable to study their effect on stimulation of proliferation at concentrations below 0.01 μmol/L. This dual action may be desirable during therapy, because the dosage may affect the nature of the compounds.
The mouse fibroblast cell line L929 (Sigma-Aldrich) was grown in MEM (Minimum Essential Medium) (Biowest, Nuaillé, France) containing 10% of Fetal Bovine Serum (Biowest), 1 mmol/L sodium pyruvate (Biological Industries, Cromwell, CT, USA), 0.5 mmol/L non-essential amino acids (Sigma-Aldrich) and 100 units/mL penicillin with […] streptomycin (Biological Industries) in an incubator at 37 °C with 5% CO2. Cells were plated and grown to 80% confluence before the initiation of the assay.
(§2) The XTT assay was used to evaluate cell metabolic activity. […] The number of viable cells is correlated with the colour intensity determined by photometric measurements. XTT (Serva, Heidelberg, Germany) was dissolved in MEM without phenol red (PAN-Biotech, Aidenbach, Germany) or DMEM without phenol red (PAN-Biotech) at a concentration of 1 mg/mL. Phenazine metosulphate (PMS) (Serva) was dissolved in phosphate-buffered saline (PBS, 5 mmol/L). PMS solution was then added to the XTT solution at a concentration of 25 μM. Investigated compounds were dissolved in dimethyl sulfoxide (DMSO) to obtain stock solutions.
(§3) L929 and EA.hy926 cells were seeded into 96-well plates at a density of 1 × 10^4 cells per well. They were cultured for 24 h in the incubator (37 °C and 5% CO2). After that time, the medium was removed. Then the 100 µL of medium containing investigated compounds (in the range of concentration 0.01–1250 µmol/L) or only culture medium (blank control) were added. Cisplatin was used as a reference compound. Cells were further incubated for 24 h. At the third day, the old medium were removed and cells were washed with PBS. 100 µL of culture medium with the additional 50 µL of the XTT/PMS solution were added to each well. Plates were incubated in the dark for 3 h at 37 °C. Then, the plates were swayed and an aliquot of 100 µL from each well was transferred into the corresponding well of a new plate. Finally, the absorbance was measured by using the microplate reader (Synergy H1, BioTek, Winooski, VT, USA) at a wavelength of 450 nm. The cell viability was expressed as a percentage of the control values (blanks).
(Formazan colour is commonly taken as a measure of viable cells.)

For assay [2], the system named is EA.hy926 cell line (the human umbilical vein, somatic cell hybrid). The assay can be described thus: XTT assay, cell proliferation study. To be noted: for IC50 / The Range of Influence [%, Control = 100%] / Stimulating effect on proliferation: EA.hy926, XTT; for IC50: 24 h incubation, 0.01–1250 µmol/L; for The Range of Influence [%, Control = 100%]: viability over 0.01–1250 µmol/L; for Selectivity of action (IC50 EA.hy926 versus L929): IC50 lower for EA.hy926 than for L929. As for the experimental part:
as §1
The EA.hy926 cell line (the human umbilical vein, somatic cell hybrid, American Type Culture Collection, Manassas, VA, USA) was used to evaluate the cytotoxicity of novel compounds. Cells were grown in Dulbecco’s Modified Eagle’s Medium (DMEM) which contains 10% of Fetal Bovine Serum (Biowest), 2 mmol/L glutamine (Sigma-Aldrich) and 100 units/mL penicillin with […] streptomycin (Biological Industries). Cells were plated and grown in an incubator at 37 °C with 5% CO2 to 80% confluence before the initiation of the assay.
as §2, §3

The test system of assay [3] is Fifteen strains of microorganisms from different species. The assay can be described thus: Initial antimicrobial screening by disc diffusion on the whole panel. The note with it: 15 strains, discs at 100 or 200 µg/mL. As for the experimental part:
(§4) Fifteen strains of microorganisms from different species were used. The growth inhibition zones were evaluated in two independent experiments (n = 2 in each of them), and the potential inhibitors of microbial growth are presented in Table 3. The hydrazine and hydrazide derivatives of 3-formylchromone constitute a class of potential antimicrobial agents and are worthy of further investigation. […] In case of N. meningitidis (result with *) the action of 9 was noted just for 100 µg/mL and the influence in concentration of 200 µg/mL was not observed.
(§5) The microbial reference strains representing different families of bacteria and fungi, pathogenic for man and animals, were used. The 15 strains were derived from international microbial collections held by the Department of Pharmaceutical Microbiology and Microbiological Diagnostics of the Medical University of Lodz: Candida albicans ATCC 10231, Enterococcus faecalis ATCC 29212, Klebsiella pneumoniae ATCC 700603, Pseudomonas aeruginosa NCTC 6749, Proteus vulgaris CCM 1799, Staphylococcus epidermidis ATCC 12228, Shigella flexneri ATCC 12022, Streptococcus pneumoniae ATCC 49619, Streptococcus pyogenes ATCC 19615, Corynebacterium jeikeium K411, Escherichia coli ATCC 25922, Staphylococcus aureus NCTC 4135, Streptococcus dysgalactiae subsp. equisimilis ATCC 12394, Neisseria meningitidis DSM 25942, Listeria monocytogenes PCM 2191.
(§6) The strains were stored at −80 °C, frozen in a 1:1 mixture of Brain Heart Infusion (BHI) broth and glycerol. The reference strains, depending on the growth requirements, were grown on a solid medium—nutrient agar, nutrient agar with 5% addition of lambs defibrinated blood or (in the case of Corynebacterium jeikeium) Triptic Soy Agar (TSA) with the addition of sheep blood, yeast extract and Tween-80. The susceptibility of the strains to chemical compounds was measured analogously to the adopted method of diffusion and disc preparation of antibiotics for compounds introduced into treatment. After receiving the pure culture of the reference strain, obtained from frozen samples and grown on the appropriate medium for growth requirements, suspensions of the tested strains were prepared in a physiological NaCl solution with a density of 0.5 on the McFarland scale. These suspensions were seeded with a cotton ball over the entire surface of the test medium. Discs impregnated with the test compound at a concentration of 100 or 200 µg/mL were then placed on it and incubated for 24 h at 37 °C.
On the technique in general: A growth-free zone around the sample is the usual read-out of agar diffusion tests.

The subject of assay [4] is Staphylococcus epidermidis ATCC 12228. Briefly: Disc diffusion, inhibition of growth zones. To be noted: S. epidermidis; discs at 100 or 200 µg/mL, 24 h at 37 °C. As for the experimental part: as §4, §5, §6

Each structure is given as a SMILES string.

Take `N.N.[Cl][Pt][Cl]` [Cisplatin, reference compound]: in assay [1], the IC50 (as a rule, the concentration needed to halve the response being measured) stood at 74.4 µM and the “The Range of Influence [%, Control = 100%]” value is recorded as 8.49–55.70%. In assay [2], the IC50 was determined as 67.4 µM and the “The Range of Influence [%, Control = 100%]” value is recorded as 8.71–75.14%.

In the case of `O=c1c(C=NNc2ccc(C(F)(F)F)cc2)coc2ccccc12` [Compound 3, 3-[(4-Trifluoromethylphenyl)-hydrazonomethyl]-chromen-4-one], in assay [1], the “The Range of Influence [%, Control = 100%]” value was 55.91–96.98%. In assay [2], the “Stimulating effect on proliferation” value is “slightly stimulated”; the IC50 worked out at 975 µM; the “The Range of Influence [%, Control = 100%]” value was 37.40–101.33%; the “Selectivity of action (IC50 EA.hy926 versus L929)” value is recorded as “very good”. Also, the “Inhibition of microbial growth (result in words)” value (from here on “Inhibition of microbial growth”) in assay [3] is “not able to inhibit microbial growth”.

`O=c1c(C=NNc2cc(C(F)(F)F)cc(C(F)(F)F)c2)coc2ccccc12` [Compound 4, 3-[(3,5-Bis-trifluoromethylphenyl)-hydrazonomethyl]-chromen-4-one]: in assay [1], the “Stimulating effect on proliferation” value is “weak stimulating effect”; the IC50 is 1030 µM; the “The Range of Influence [%, Control = 100%]” value is on record as 45.61–101.31%. In assay [2], the “Stimulating effect on proliferation” value is reported as “weak stimulating effect”; the IC50 is 534 µM; the “The Range of Influence [%, Control = 100%]” value was 28.46–102.18%. Moreover, the “Inhibition of growth zones (lowest effective studied concentration)” value (from here on “Inhibition of growth zones”) in assay [4] was 100 µg/mL. For the same compound, in assay [3], the “Inhibition of microbial growth” value is “exhibit antimicrobial potential”.

On to `O=c1c(C=NNc2c(F)c(F)cc(F)c2F)coc2ccccc12` [Compound 6, 3-[(2,3,5,6-Tetrafluorophenyl)-hydrazonomethyl]-chromen-4-one], for which, in assay [1], the IC50 was found to be 728 µM and the “The Range of Influence [%, Control = 100%]” value was 40.05–93.11%. Further, in assay [2], the IC50 amounted to 578 µM and the “The Range of Influence [%, Control = 100%]” value is 24.47–97.86%. Besides, in assay [3], the “Inhibition of microbial growth” value is reported as “not able to inhibit microbial growth”.

On to `Cc1ccc(F)cc1NN=Cc1coc2ccccc2c1=O` [Compound 7, 3-[(5-Fluoro-2-methylphenyl)-hydrazonomethyl]-chromen-4-one], for which, in assay [1], the IC50 turned out to be 954 µM and the “The Range of Influence [%, Control = 100%]” value is recorded as 44.89–96.11%. In assay [2], the “Stimulating effect on proliferation” value was “slightly stimulated”; the IC50 is 953 µM; the “The Range of Influence [%, Control = 100%]” value is listed as 42.43–101.05%. In addition, in assay [4], the “Inhibition of growth zones” value came to 100 µg/mL. Besides, the “Inhibition of microbial growth” value in assay [3] is listed as “exhibit antimicrobial potential”.

Regarding `O=c1c(C=NNc2c(F)cc(F)cc2F)coc2ccccc12` [Compound 8, 3-[(2,4,6-Trifluorophenyl)-hydrazonomethyl]-chromen-4-one], in assay [1], the IC50 is 98.5 µM and the “The Range of Influence [%, Control = 100%]” value was 38.11–64.40%. Further, in assay [2], the IC50 stood at 18.1 µM; the “The Range of Influence [%, Control = 100%]” value was 23.31–63.94%; the “Selectivity of action (IC50 EA.hy926 versus L929)” value is reported as “very good”. Further, the “Inhibition of microbial growth” value in assay [3] is given as “not able to inhibit microbial growth”.

In the case of `O=c1c(C=NNc2ccccc2C(F)(F)F)coc2ccccc12` [Compound 10, 3-[(2-Trifluoromethylphenyl)-hydrazonomethyl]-chromen-4-one], in assay [1], the IC50 is 1210 µM and the “The Range of Influence [%, Control = 100%]” value is given as 48.62–73.47%. In addition, in assay [2], the IC50 turned out to be 645 µM and the “The Range of Influence [%, Control = 100%]” value is 31.21–94.69%. The “Inhibition of growth zones” value in assay [4] is listed as 100 µg/mL. For the same compound, the “Inhibition of microbial growth” value in assay [3] is given as “exhibit antimicrobial potential”.
